Biological target: ALK2 (Homo sapiens (Human), UniProt Q04771)
Experiment: ALK2 inhibition, LanthaScreen Eu Kinase Binding Assay (ThermoFisher Scientific / Life Technologies)
Details: read-out: Measured Ki (IC50) Value for Compounds: IC50
Procedure: Biochemical assays to measure the inhibitory effects of the compounds were performed by ThermoFisher Scientific (Life Technologies). ALK2 inhibition was tested using LanthaScreen™ Eu Kinase Binding Assay screening protocol.

Chain of ALK2 (Q04771 21-509): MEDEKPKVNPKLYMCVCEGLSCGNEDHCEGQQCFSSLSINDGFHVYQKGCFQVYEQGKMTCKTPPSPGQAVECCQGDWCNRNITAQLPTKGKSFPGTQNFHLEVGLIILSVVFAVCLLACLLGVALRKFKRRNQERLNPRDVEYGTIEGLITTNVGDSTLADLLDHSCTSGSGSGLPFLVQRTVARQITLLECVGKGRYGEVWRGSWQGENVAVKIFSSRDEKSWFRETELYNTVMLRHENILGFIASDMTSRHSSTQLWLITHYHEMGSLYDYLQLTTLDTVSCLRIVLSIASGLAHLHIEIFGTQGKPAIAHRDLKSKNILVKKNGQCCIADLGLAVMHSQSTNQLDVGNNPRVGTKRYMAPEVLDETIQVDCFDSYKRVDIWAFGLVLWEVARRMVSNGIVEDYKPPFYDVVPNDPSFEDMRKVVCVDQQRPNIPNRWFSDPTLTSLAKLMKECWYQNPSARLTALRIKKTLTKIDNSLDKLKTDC

SMILES | IC50 [nM]
COC(=O)c1cc(Nc2cn(-c3cc(OC)c(OC)c(OC)c3)cn2)c2occc2c1 [Compound 411b, methyl 7-((1-(3,4,5-trimethoxyphenyl)-1H-imidazol-4-yl)amino)benzofuran-5-carboxylate] | 100 to 1000
COc1cc(-n2cnc(Nc3cc(C(=O)O)cc4ccoc34)c2)cc(OC)c1OC [Compound 411c, 7-((1-(3,4,5-trimethoxyphenyl)-1H-imidazol-4-yl)amino)benzofuran-5-carboxylic acid] | 100 to 1000
COc1cc(-n2cnc(Nc3cc(C(=O)N4CCC[C@H]4C(N)=O)cc4ccoc34)c2)cc(OC)c1OC [Compound 411d, (S)-1-(7-((1-(3,4,5-trimethoxyphenyl)-1H-imidazol-4-yl)amino)benzofuran-5-carbonyl)pyrrolidine-2-carboxamide] | 100 to 1000
COc1cc(-n2cnc(Nc3cc(C(=O)N4CCCC4)cc4ccoc34)c2)cc(OC)c1OC [Compound 412a, pyrrolidin-1-yl(7-((1-(3,4,5-trimethoxyphenyl)-1H-imidazol-4-yl)amino)benzofuran-5-yl)methanone] | 100 to 1000
COc1cc(-n2cnc(Nc3cc(C(=O)N4CCC[C@@H](N)C4)cc4ccoc34)c2)cc(OC)c1OC [Compound 413b, (R)-(3-aminopiperidin-1-yl)(7-((1-(3,4,5-trimethoxyphenyl)-1H-imidazol-4-yl)amino)benzofuran-5-yl)methanone] | 100 to 1000
OC[C@@H]1CCCN1c1nc(Nc2cn(-c3ccc(OC(F)(F)F)cc3)cn2)c2cccn2n1 [Compound 414d, (S)-(1-(4-((1-(4-(trifluoromethoxy)phenyl)-1H-imidazol-4-yl)amino)pyrrolo[2,1-f][1,2,4]triazin-2-yl)pyrrolidin-2-yl)methanol] | 100 to 1000
COc1cc(-n2cnc(Nc3nc(N4CCC[C@H]4CO)c4cccn4n3)n2)cc(OC)c1OC [Compound 415d, (S)-(1-(2-((1-(3,4,5-trimethoxyphenyl)-1H-1,2,4-triazol-3-yl)amino)pyrrolo[2,1-f][1,2,4]triazin-4-yl)pyrrolidin-2-yl)methanol] | 100 to 1000
COC(=O)c1cc(OC)cc(-n2cnc(Nc3nc(N4CCC[C@H]4CO)nn4cccc34)c2)c1 [Compound 416e, (S)-methyl 3-(4-((2-(2-(hydroxymethyl)pyrrolidin-1-yl)pyrrolo[2,1-f][1,2,4]triazin-4-yl)amino)-1H-imidazol-1-yl)-5-methoxybenzoate] | < 100
COc1cc(C(=O)N2CCC[C@H]2CO)cc(-n2cnc(Nc3nc(N4CCC[C@H]4CO)nn4cccc34)c2)c1 [Compound 416f, ((S)-2-(hydroxymethyl)pyrrolidin-1-yl)(3-(4-((2-((S)-2-(hydroxymethyl)pyrrolidin-1-yl)pyrrolo[2,1-f][1,2,4]triazin-4-yl)amino)-1H-imidazol-1-yl)-5-methoxyphenyl)methanone] | 100 to 1000
OC[C@@H]1CCCN1c1nc(Nc2cn(-c3ccc(OC(F)(F)F)c(Cl)c3)cn2)c2cccn2n1 [Compound 417e, (S)-(1-(4-((1-(3-chloro-4-(trifluoromethoxy)phenyl)-1H-imidazol-4-yl)amino)pyrrolo[2,1-f][1,2,4]triazin-2-yl)pyrrolidin-2-yl)methanol] | > 1000
COc1cc(-c2nnc(Nc3nc(N4CCC[C@H]4CO)c4cccn4n3)o2)cc(OC)c1OC [Compound 418b, (S)-(1-(2-((5-(3,4,5-trimethoxyphenyl)-1,3,4-oxadiazol-2-yl)amino)pyrrolo[2,1-f][1,2,4]triazin-4-yl)pyrrolidin-2-yl)methanol] | > 1000
COc1cc(-n2cnc(Nc3nc(C(=O)N4CCCC4)c4cccn4n3)c2)cc(OC)c1OC [Compound 419b, pyrrolidin-1-yl(2-((1-(3,4,5-trimethoxyphenyl)-1H-imidazol-4-yl)amino)pyrrolo[2,1-f][1,2,4]triazin-4-yl)methanone] | 100 to 1000
OC[C@@H]1CCCN1c1nc(Nc2cn(-c3ccc(OC(F)(F)F)c(Br)c3)cn2)c2cccn2n1 [Compound 420e, (S)-(1-(4-((1-(3-bromo-4-(trifluoromethoxy)phenyl)-1H-imidazol-4-yl)amino)pyrrolo[2,1-f][1,2,4]triazin-2-yl)pyrrolidin-2-yl)methanol] | > 1000
OC[C@@H]1CCCN1c1nc(Nc2cn(-c3ccncc3)cn2)c2cccn2n1 [Compound 421e, (S)-(1-(4-((1-(pyridin-4-yl)-1H-imidazol-4-yl)amino)pyrrolo[2,1-f][1,2,4]triazin-2-yl)pyrrolidin-2-yl)methanol] | < 100
COc1cc(-n2cnc(Nc3nc(N4CCN(CCO)CC4)nc4sccc34)c2)cc(OC)c1OC [Compound 422a, 2-(4-(4-((1-(3,4,5-trimethoxyphenyl)-1H-imidazol-4-yl)amino)thieno[2,3-d]pyrimidin-2-yl)piperazin-1-yl)ethanol] | < 100
OC[C@@H]1CCCN1c1nc(Nc2cn(-c3ccc4c(c3)OCCO4)cn2)c2cccn2n1 [Compound 423e, (S)-(1-(4-((1-(2,3-dihydrobenzo[b][1,4]dioxin-6-yl)-1H-imidazol-4-yl)amino)pyrrolo[2,1-f][1,2,4]triazin-2-yl)pyrrolidin-2-yl)methanol] | 100 to 1000
OC[C@@H]1CCCN1c1nc(Nc2cn(-c3cccc4c3OCO4)cn2)c2cccn2n1 [Compound 424e, (S)-(1-(4-((1-(benzo[d][1,3]dioxol-4-yl)-1H-imidazol-4-yl)amino)pyrrolo[2,1-f][1,2,4]triazin-2-yl)pyrrolidin-2-yl)methanol] | < 100
OC[C@@H]1CCCN1c1nc(Nc2cn(-c3cccc(O)c3O)cn2)c2cccn2n1 [Compound 424f, (S)-3-(4-((2-(2-(hydroxymethyl)pyrrolidin-1-yl)pyrrolo[2,1-f][1,2,4]triazin-4-yl)amino)-1H-imidazol-1-yl)benzene-1,2-diol] | 100 to 1000
OC[C@@H]1CCCN1c1nc(Nc2cn(-c3ccc4c(c3)OCO4)cn2)c2cccn2n1 [Compound 425e, (S)-(1-(4-((1-(benzo[d][1,3]dioxol-5-yl)-1H-imidazol-4-yl)amino)pyrrolo[2,1-f][1,2,4]triazin-2-yl)pyrrolidin-2-yl)methanol] | < 100
COc1cc(C(=O)N(C)C)cc(-n2cnc(Nc3nc(N4CCC[C@H]4CO)nn4cccc34)c2)c1 [Compound 426c, (S)-3-(4-((2-(2-(hydroxymethyl)pyrrolidin-1-yl)pyrrolo[2,1-f][1,2,4]triazin-4-yl)amino)-1H-imidazol-1-yl)-5-methoxy-N,N-dimethylbenzamide] | < 100
CNC(=O)c1cc(OC)cc(-n2cnc(Nc3nc(N4CCC[C@H]4CO)nn4cccc34)c2)c1 [Compound 427b, (S)-3-(4-((2-(2-(hydroxymethyl)pyrrolidin-1-yl)pyrrolo[2,1-f][1,2,4]triazin-4-yl)amino)-1H-imidazol-1-yl)-5-methoxy-N-methylbenzamide] | < 100
OC[C@@H]1CCCN1c1nc(Nc2cn(-c3ccc4c(c3)OCO4)cn2)c2ccsc2n1 [Compound 428b, (S)-(1-(4-((1-(benzo[d][1,3]dioxol-5-yl)-1H-imidazol-4-yl)amino)thieno[2,3-d]pyrimidin-2-yl)pyrrolidin-2-yl)methanol] | < 100
NC(=O)[C@@H]1CCCN1c1nc(Nc2cn(-c3ccc4c(c3)OCO4)cn2)c2ccsc2n1 [Compound 429a, (S)-1-(4-((1-(benzo[d][1,3]dioxol-5-yl)-1H-imidazol-4-yl)amino)thieno[2,3-d]pyrimidin-2-yl)pyrrolidine-2-carboxamide] | 100 to 1000

Source: patent US11661426B2, “Imidazole-containing inhibitors of ALK2 kinase” (BioCryst Pharmaceuticals, Inc., priority 2017, dated 2023)
